Reference: patent US20240408096A1, “DOSING REGIMENS FOR ORAL ALK2 KINASE INHIBITORS” (BioCryst Pharmaceuticals, Inc., priority 2020, published 2024)

Legend:
[1] = plasma protein binding, dog; type: in vitro ADME; details: in vitro
[2] = Phase 1 Parts 1 and 2 blood pressure pharmacodynamics / exposure-response; type: in vivo, human
From the text: Where possible, systolic and diastolic BP measurements will be used to determine the change from baseline between each active treatment relative to that obtained on subjects receiving placebo within a study part. At each time point blood pressure data is collected, an individual subject's change from baseline will be calculated.

[3] = plasma protein binding, monkey; type: in vitro ADME; details: in vitro
[4] = Phase 1 Part 2 (MAD) urinary PK; type: in vivo, human; details: for CLR,0-6 / CLR,6-12 / CLR,32-24 / CLR,144-150 / CLR,150-156 / CLR,156-168 / Cum % excreted0-168 / CumAe0-168: Part 2 MAD, geometric mean (CV%); for CumAe0-168: urine 0 to 168 hours
Method: (§1) Four sequential MAD cohorts were dosed.
Urine samples were collected according to the schedule in Tables 4 and 5 for Parts 1 and 2, respectively. The pre-dose sample on Day 1 was collected any time in the 2 hours prior to dosing. A 30-minute window was allowed around collection intervals.

[5] = Phase 1 Part 2 (MAD) safety and tolerability; type: in vivo, human; details: healthy subjects
Method: The primary outcome measure of Part 1 and Part 2 will be: (1) measurement of the safety and tolerability by subject incidence of graded treatment-emergent adverse events (TEAEs), laboratory abnormalities, and changes to vital signs, ECGs, cardiac telemetry, and physical examination findings.
as §1
For each cohort of Part 2, the daily dose of study drug was administered as a single dose (1 time daily or QD). Similar to Part 1 of the study, following a screening period to determine eligibility, subjects in each cohort entered the CRU on the […] of Day −1. Study eligibility was re-confirmed upon admission to the CRU, and subjects remained in the CRU overnight prior to dosing on Day 1. Subjects received a final morning dose of study drug on the last day of dosing. Subjects were discharged from the CRU following sample collection on Day 11. Dosage administration was supervised by study personnel and all subjects completed dosing per protocol. […] Subjects returned to the CRU on Day 23 (+2 days) for final follow-up safety assessments.

[6] = all cohorts and placebo subjects

- plasma protein binding [1]: ≥ 99.9%
- plasma protein binding [3]: ≥ 99.9%
- cumulative amount of parent compound excreted in the urine ([4]; Part 2, 5 to 20 mg QD): less than 1%
- CLR,0-6 ([4]; 5 mg QD): 17.16 (90.4) mL/h
- CLR,6-12 ([4]; 5 mg QD): 11.11 (152.2) mL/h
- CLR,32-24 ([4]; 5 mg QD): 12.32 (83.5) mL/h
- CLR,144-150 ([4]; 5 mg QD): 22.90 (79.5) mL/h
- CLR,150-156 ([4]; 5 mg QD): 10.85 (144.3) mL/h
- CLR,156-168 ([4]; 5 mg QD): 10.66 (114.9) mL/h
- Cum % excreted0-168 ([4]; 5 mg QD): 0.2515 (114.5) %
- CumAe0-168 ([4]; 5 mg QD): 88,030 (114.5) ng
- CLR,0-6 ([4]; 10 mg QD): 9.850 (75.1) mL/h
- CLR,6-12 ([4]; 10 mg QD): 5.468 (73.0) mL/h
- CLR,32-24 ([4]; 10 mg QD): 5.694 (65.7) mL/h
- CLR,144-150 ([4]; 10 mg QD): 12.01 (64.4) mL/h
- CLR,150-156 ([4]; 10 mg QD): 4.787 (168.5) mL/h
- CLR,156-168 ([4]; 10 mg QD): 3.480 (152.2) mL/h
- Cum % excreted0-168 ([4]; 10 mg QD): 0.1209 (66.5) %
- CumAe0-168 ([4]; 10 mg QD): 84,600 (66.5) ng
- CLR,0-6 ([4]; 15 mg QD): 14.19 (131.3) mL/h
- CLR,6-12 ([4]; 15 mg QD): 7.172 (100.3) mL/h
- CLR,32-24 ([4]; 15 mg QD): 6.837 (92.5) mL/h
- CLR,144-150 ([4]; 15 mg QD): 11.49 (171.8) mL/h
- CLR,150-156 ([4]; 15 mg QD): 8.596 (123.2) mL/h
- CLR,156-168 ([4]; 15 mg QD): 6.846 (93.4) mL/h
- Cum % excreted0-168 ([4]; 15 mg QD): 0.1676 (89.5) %
- CumAe0-168 ([4]; 15 mg QD): 176,000 (89,5) ng
- CLR,0-6 ([4]; 20 mg QD): 13.36 (76.2) mL/h
- CLR,6-12 ([4]; 20 mg QD): 9.673 (64.5) mL/h
- CLR,32-24 ([4]; 20 mg QD): 7.595 (39.1) mL/h
- CLR,144-150 ([4]; 20 mg QD): 15.28 (85.8) mL/h
- CLR,150-156 ([4]; 20 mg QD): 7.978 (54.7) mL/h
- CLR,156-168 ([4]; 20 mg QD): 4.674 (146.4) mL/h
- Cum % excreted0-168 ([4]; 20 mg QD): 0.1705 (47.2) %
- CumAe0-168 ([4]; 20 mg QD): 238,600 (47.2) ng
SMILES: COc1cc(-n2cnc(Nc3nc(N4CCC[C@H]4C(N)=O)nc4sccc34)c2)cc(OC)c1OC.O=C(O)CC(O)(CC(=O)O)C(=O)O [Compound A]
- correlation of BP with dose or exposure ([2]; Parts 1 and 2): no meaningful correlation
- slope of Δ diastolic BP-concentration model [2, 6]: 0.00151
- slope of Δ systolic BP-concentration model [2, 6]: 0.00686
- grade 3 or 4 adverse events ([5]; Part 2, 5 mg to 20 mg QD over 7 days): no grade 3 or 4 adverse events
- safety and tolerability ([5]; Part 2, multiple ascending oral doses 5 mg to 20 mg QD over 7 days): safe and generally well tolerated
